Laboratory results reported in patent US20150141411A1, “SUBSTITUTED 3,4-DIHYDRO-2H-PYRIDO[1,2-A]PYRAZINE-1,6-DIONE DERIVATIVES USEFUL FOR THE TREATMENT OF (INTER ALIA) ALZHEIMER'S DISEASE” (Janssen Pharmaceuticals, Inc., priority 2012, published 2015).

How the values were obtained:
γ-secretase [1] = molecular target: T1, γ-secretase (Homo sapiens, UniProt P49768); experiment: Screening for γ-secretase-modulating activity: Aβtotal in supernatant of SKNBE2 cells carrying hAPP 695 wild type (Alphalisa); format: cell-based; settings: SKNBE2 human neuroblastoma cells carrying hAPP 695 wild type, overnight incubation, Aβtotal in cell supernatant
T1 construct: endogenous in cells; host or cells: SKNBE2 human neuroblastoma cells (carrying hAPP 695 wild type as substrate)
Procedure: (§1) Screening was carried out using SKNBE2 human neuroblastoma cells carrying the hAPP 695—wild type, grown in Dulbecco's Modified Eagle's Medium/Nutrient mixture F-12 (DMEM/NUT-mix F-12) (HAM) provided by Invitrogen (cat no. 10371-029) containing 5% Serum/Fe supplemented with 1% non-essential amino acids, 1-glutamine 2 mM, Hepes 15 mM, penicillin 50 U/ml (units/ml) en streptomycin 50 μg/ml. Cells were grown to near confluency.
(§2) The screening was performed using a modification of the assay as described in Citron et al (1997) Nature Medicine 3: 67. Briefly, cells were plated in a 384-well plate at 10^4 cells/well in Ultraculture (Lonza, BE12-725F) supplemented with 1% glutamine (Invitrogen, 25030-024), 1% non-essential amino acid (NEAA), penicillin 50 U/ml en streptomycin 50 μg/ml in the presence of test compound at different test concentrations. The cell/compound mixture was incubated overnight at 37° C., 5% CO2. The next day the media were assayed by two sandwich immuno-assays, for Aβ42 and Aβ total.
(§3) Aβtotal and Aβ42 concentrations were quantified in the cell supernatant using the Aphalisa technology (Perkin Elmer). Alphalisa is a sandwich assay using biotinylated antibody attached to streptavidin coated donorbeads and antibody conjugated to acceptor beads. In the presence of antigen, the beads come into close proximity. The excitation of the donor beads provokes the release of singlet oxygen molecules that trigger a cascade of energy transfer in the acceptor beads, resulting in light emission. To quantify the amount of Aβ42 in the cell supernatant, monoclonal antibody specific to the C-terminus of Aβ42 (JRF/cAβ42/26) was coupled to the receptor beads and biotinylated antibody specific to the N-terminus of Aβ (JRF/AβN/25) was used to react with the donor beads. To quantify the amount of Aβtotal in the cell supernatant, monoclonal antibody specific to the N-terminus of Aβ (JRF/AβN/25) was coupled to the receptor beads and biotinylated antibody specific to the mid region of Aβ (biotinylated 4G8) was used to react with the donor beads.
(§4) To obtain the values reported in Table 3, the data are calculated as percentage of the maximum amount of amyloid Beta 42 measured in the absence of the test compound. The sigmoidal dose response curves were analyzed using non-linear regression analysis with percentage of the control plotted against the log concentration of the compound. A 4-parameter equation was used to determine the IC50.

γ-secretase [2] = molecular target: T1, γ-secretase; experiment: Screening for γ-secretase-modulating activity: Aβ42 in supernatant of SKNBE2 cells carrying hAPP 695 wild type (Alphalisa); format: cell-based; settings: SKNBE2 human neuroblastoma cells carrying hAPP 695 wild type, overnight incubation, Aβ42 in cell supernatant
Procedure: as §1, §2, §3, §4

| Compound | IC50 (γ-secretase [1]) [nM] | IC50 (γ-secretase [2]) [nM] |
| --- | --- | --- |
| Cc1cn(-c2ccc3n(c2=O)C[C@@H](C)N(C(C)c2cc(C(F)(F)F)cc(C(F)(F)F)c2)C3=O)cn1 (mixture of isomers) [compound 154] | > 10000 | 50 |
| Cc1cn(-c2ccc3n(c2=O)CCN(C(C)c2cccc(Cl)c2Cl)C3=O)cn1 (racemic) [compound 10] | > 10000 | 220 |
| Cc1cn(-c2ccc3n(c2=O)CCN(C(c2ccccc2)c2cc(C(F)(F)F)cc(C(F)(F)F)c2)C3=O)cn1 (racemic) [compound 52] | > 10000 | 980 |
| Cc1cn(-c2ccc3n(c2=O)C(C)C(C)N(Cc2cc(C(F)(F)F)cc(C(F)(F)F)c2)C3=O)cn1 (single isomer, unassigned) [14a] | > 10000 | 1780 |
| Cc1cn(-c2ccc3n(c2=O)C(C)C(C)N(Cc2cc(C(F)(F)F)cc(C(F)(F)F)c2)C3=O)cn1 (single isomer, unassigned) [14b] | > 10000 | 650 |
| Cc1cn(-c2ccc3n(c2=O)C[C@@H](C)N(C(C)c2cc(CC4CC4)cc(C(F)(F)F)c2)C3=O)cn1 (single isomer, unassigned) [compound 135] | > 10000 | 20 |
| Cc1cn(-c2ccc3n(c2=O)C[C@@H](C)N(C(C)c2cc(CC4CC4)cc(C(F)(F)F)c2)C3=O)cn1 (single isomer, unassigned) [compound 136] | > 10000 | 40 |
| CCC(c1cc(OC)cc(C(F)(F)F)c1)N1C(=O)c2ccc(-n3cnc(C)c3)c(=O)n2C[C@H]1C (single isomer, unassigned) [compound 142] | > 10000 | 210 |
| CCOc1cc(C(C)N2C(=O)c3ccc(-n4cnc(C)c4)c(=O)n3C[C@H]2C)cc(C(F)(F)F)c1 (single isomer, unassigned) [compound 144] | > 10000 | 130 |
| Cc1cn(-c2ccc3n(c2=O)C[C@@H](C)N(C(C)c2cccc(OC(F)(F)F)c2)C3=O)cn1 (single isomer, unassigned) [compound 146] | > 10000 | 150 |
| Cc1cn(-c2ccc3n(c2=O)C[C@@H](C)N(C(C)c2cccc(OC(F)(F)F)c2)C3=O)cn1 (single isomer, unassigned) [compound 147] | > 10000 | 330 |
| COc1cc(C(C)N2C(=O)c3ccc(-n4cnc(C)c4)c(=O)n3C[C@H]2C)cc(C(F)(F)F)c1 (single isomer, unassigned) [compound 148] | > 10000 | 140 |
| COc1cc(C(C)N2C(=O)c3ccc(-n4cnc(C)c4)c(=O)n3C[C@H]2C)cc(C(F)(F)F)c1 (single isomer, unassigned) [compound 149] | > 10000 | 300 |
| Cc1cn(-c2ccc3n(c2=O)CCN(C(C)c2c[nH]c4cc(F)c(Cl)cc24)C3=O)cn1 (single isomer, unassigned) [compound 184] | 9120 | 650 |
| Cc1cn(-c2ccc3n(c2=O)CC(C)N(C(C)c2c[nH]c4cc(F)c(Cl)cc24)C3=O)cn1 (single isomer, unassigned) [compound 187] | 6920 | 190 |
| Cc1cn(-c2ccc3n(c2=O)CC(C)N(C(C)c2c[nH]c4cc(F)c(Cl)cc24)C3=O)cn1 (single isomer, unassigned) [compound 188] | 4570 | 10 |
| CCn1cc(C(C)N2C(=O)c3ccc(-n4cnc(C)c4)c(=O)n3CC2C)c2cc(Cl)c(F)cc21 (single isomer, unassigned) [compound 191] | > 10000 | 200 |
| Cc1cn(-c2ccc3n(c2=O)CC(C)N(C(C)c2cn(C(C)C)c4cc(F)c(Cl)cc24)C3=O)cn1 (single isomer, unassigned) [compound 193] | > 10000 | 200 |

| Compound | IC50 (γ-secretase [1]) [nM] | IC50 (γ-secretase [2]) [nM] |
| --- | --- | --- |
| Cc1cn(-c2ccc3n(c2=O)CC(C)N(C2Cc4ccccc4C2)C3=O)cn1 (single isomer, unassigned) [compound 206] | > 10000 | > 10000 |
| Cc1cn(-c2ccc3n(c2=O)CCN(C(C)c2cc(Cl)cc(Cl)c2)C3=O)cn1 (single isomer, unassigned) [compound 209] | > 10000 | 380 |
| Cc1cn(-c2ccc3n(c2=O)C[C@@H](C)N(C(C)c2cc(Cl)cc(Cl)c2)C3=O)cn1 (single isomer, unassigned) [compound 210] | > 10000 | 260 |
| Cc1cn(-c2ccc3n(c2=O)CC(C)N(C(C)c2cn(C)c4ccc(C(F)(F)F)cc24)C3=O)cn1 (single isomer, unassigned) [compound 214] | 6460 | 240 |
| Cc1cn(-c2ccc3n(c2=O)CC(C)N(C(C)c2cn(C)c4ccc(C(F)(F)F)cc24)C3=O)cn1 (single isomer, unassigned) [compound 215] | 1440 | 10 |
| CCn1cc(C(C)N2C(=O)c3ccc(-n4cnc(C)c4)c(=O)n3CC2C)c2cc(C(F)(F)F)ccc21 (single isomer, unassigned) [compound 216] | 6460 | 120 |
| CCn1cc(C(C)N2C(=O)c3ccc(-n4cnc(C)c4)c(=O)n3CC2C)c2cc(C(F)(F)F)ccc21 (single isomer, unassigned) [compound 217] | 480 | 3 |
| Cc1cn(-c2ccc3n(c2=O)CC(C)N(C(C)c2c[nH]c4c(F)cc(Cl)cc24)C3=O)cn1 (single isomer, unassigned) [compound 218] | 3800 | 140 |
| CCn1cc(C(C)N2C(=O)c3ccc(-n4cnc(C)c4)c(=O)n3CC2C)c2cc(Cl)cc(F)c21 (single isomer, unassigned) [compound 220] | 6030 | 170 |
| Cc1cn(-c2ccc3n(c2=O)CC(C)N(C(C)c2cn(C)c4c(F)cc(Cl)cc24)C3=O)cn1 (single isomer, unassigned) [compound 224] | 1860 | 10 |
| CCn1cc(C(C)N2C(=O)c3ccc(-n4cnc(C)c4)c(=O)n3C[C@H]2C)c2ccc(C(F)(F)F)cc21 (single isomer, unassigned) [compound 235] | 6000 | 10 |
| CCn1cc(C(C)N2C(=O)c3ccc(-n4cnc(C)c4)c(=O)n3CC2C)c2cc(Cl)ccc21 (single isomer, unassigned) [compound 243] | 2000 | 10 |
| CCn1cc(C(C)N2C(=O)c3ccc(-n4cnc(C)c4)c(=O)n3C[C@H]2C)c2ccc(C(F)(F)F)cc21 (single isomer, unassigned) [compound 244] | > 10000 | 370 |
| Cc1cn(-c2ccc3n(c2=O)C[C@@H](C)N(C(C)c2cn(C4CC4)c4cc(F)c(Cl)cc24)C3=O)cn1 (single isomer, unassigned) [compound 248] | 1000 | 8 |
| CCn1cc(C(C)N2C(=O)c3ccc(-n4cnc(C)c4)c(=O)n3CC2C)c2cc(Cl)ccc21 (single isomer, unassigned) [compound 249] | 8000 | 490 |
| COc1cc2c(cc1Cl)c(C(C)N1C(=O)c3ccc(-n4cnc(C)c4)c(=O)n3C[C@H]1C)cn2C (single isomer, unassigned) [compound 256] | 4000 | 40 |
| Cc1cn(-c2ccc3n(c2=O)CC(C)N(Cc2ccc(C)c(N4CCCCC4)c2)C3=O)cn1 (stereo not drawn) [compound 4] | > 10000 | 80 |
| CCc1cn(-c2ccc3n(c2=O)CC(CN(C)C)N(Cc2cc(C(F)(F)F)cc(C(F)(F)F)c2)C3=O)cn1 (stereo not drawn) [compound 8] | > 10000 | 930 |
